Source: patent US20240376121A1, “COMPOUNDS AND USES THEREOF” (Foghorn Therapeutics Inc., priority 2021, published 2024)

What was measured:
[1] = molecular target: T1, HiBit-BRM fusion protein (Homo sapiens, UniProt P51531); experiment: HiBiT-BRM cell-based degradation assay (Nano-Glo HiBiT Lytic Detection); details: stable HeLa cell line expressing HiBiT-BRM, 24 h incubation; for BRM HiBit Degradation Maximum (%): top dose 30 μM; for DC50: read-out: BRM HiBit Degradation IC50
T1 construct: expressed in transfected cells
Summary of the method: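 Percent BRM loss was derived from HiBiT luminescence relative to DMSO-treated cells and cells given 2 μM of a known BRM/BRG1 degrader. Treatment lasted 24 h in HiBiT-BRM HeLa cells, with a top final concentration of 30 μM.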

[2] = molecular target: T2, HiBit-BRG1 fusion protein (Homo sapiens, UniProt P51532); experiment: HiBiT-BRG1 cell-based degradation assay (Nano-Glo HiBiT Lytic Detection); details: stable HeLa cell line expressing HiBit-BRG1 and LgBit, 24 h incubation; for Dmax: top dose 30 μM, read-out: BRG1 HiBit Degradation Maximum (%); for DC50: read-out: BRMG1 HiBit Degradation IC50
T2 construct: expressed in transfected cells
Summary of the method: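 Degradation was scored from HiBiT lytic luminescence, scaled between DMSO-treated wells and wells given 2 μM of a standard BRM/BRG1 degrader. Cells were a stable HeLa HiBiT-BRG1/LgBiT line dosed for 24 h, ten concentrations in 3-fold steps from 30 μM, in duplicate.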

T2 sequence (P51532 whole entry, the tested form may be a part): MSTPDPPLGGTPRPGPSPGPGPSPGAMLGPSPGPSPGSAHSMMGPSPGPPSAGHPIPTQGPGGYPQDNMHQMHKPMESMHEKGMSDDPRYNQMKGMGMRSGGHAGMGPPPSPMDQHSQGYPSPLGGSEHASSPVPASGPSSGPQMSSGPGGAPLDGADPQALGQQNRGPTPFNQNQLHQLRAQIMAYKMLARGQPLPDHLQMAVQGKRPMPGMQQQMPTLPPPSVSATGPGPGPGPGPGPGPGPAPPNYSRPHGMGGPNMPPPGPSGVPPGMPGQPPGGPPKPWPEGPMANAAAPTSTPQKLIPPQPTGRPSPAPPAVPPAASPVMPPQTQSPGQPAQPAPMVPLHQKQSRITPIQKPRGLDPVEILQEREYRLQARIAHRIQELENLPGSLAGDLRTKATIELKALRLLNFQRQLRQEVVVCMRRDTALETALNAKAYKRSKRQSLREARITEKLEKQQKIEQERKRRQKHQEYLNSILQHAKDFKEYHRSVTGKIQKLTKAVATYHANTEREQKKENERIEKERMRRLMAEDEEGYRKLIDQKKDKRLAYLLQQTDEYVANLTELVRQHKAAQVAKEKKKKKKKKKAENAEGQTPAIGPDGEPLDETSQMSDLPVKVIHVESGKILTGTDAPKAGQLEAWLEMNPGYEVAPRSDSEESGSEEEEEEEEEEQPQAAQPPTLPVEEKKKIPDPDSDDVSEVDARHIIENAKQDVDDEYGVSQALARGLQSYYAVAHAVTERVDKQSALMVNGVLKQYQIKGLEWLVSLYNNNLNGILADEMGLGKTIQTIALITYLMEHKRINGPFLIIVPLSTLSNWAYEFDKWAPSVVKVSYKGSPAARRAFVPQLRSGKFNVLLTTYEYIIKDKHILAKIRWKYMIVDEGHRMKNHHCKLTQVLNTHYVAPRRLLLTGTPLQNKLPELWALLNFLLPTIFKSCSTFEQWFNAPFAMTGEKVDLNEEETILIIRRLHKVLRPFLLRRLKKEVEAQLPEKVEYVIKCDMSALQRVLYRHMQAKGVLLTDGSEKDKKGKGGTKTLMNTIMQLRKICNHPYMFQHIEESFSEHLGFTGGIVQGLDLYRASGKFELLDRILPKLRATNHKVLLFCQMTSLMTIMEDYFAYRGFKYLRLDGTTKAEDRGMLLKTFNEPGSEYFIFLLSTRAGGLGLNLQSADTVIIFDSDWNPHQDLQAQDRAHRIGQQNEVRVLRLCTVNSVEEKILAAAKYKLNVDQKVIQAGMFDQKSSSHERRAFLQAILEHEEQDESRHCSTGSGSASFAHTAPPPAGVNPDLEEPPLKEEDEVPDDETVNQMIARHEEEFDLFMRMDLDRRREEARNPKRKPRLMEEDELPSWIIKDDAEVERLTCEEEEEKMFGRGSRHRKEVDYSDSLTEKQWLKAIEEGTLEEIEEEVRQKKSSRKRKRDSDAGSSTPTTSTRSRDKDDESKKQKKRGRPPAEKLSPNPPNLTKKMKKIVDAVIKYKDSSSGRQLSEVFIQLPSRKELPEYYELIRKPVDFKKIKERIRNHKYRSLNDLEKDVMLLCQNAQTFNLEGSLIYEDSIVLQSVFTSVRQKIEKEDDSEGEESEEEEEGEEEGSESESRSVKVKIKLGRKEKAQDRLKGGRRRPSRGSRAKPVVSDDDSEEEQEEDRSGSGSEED
T1 sequence (P51531 whole entry, the tested form may be a part): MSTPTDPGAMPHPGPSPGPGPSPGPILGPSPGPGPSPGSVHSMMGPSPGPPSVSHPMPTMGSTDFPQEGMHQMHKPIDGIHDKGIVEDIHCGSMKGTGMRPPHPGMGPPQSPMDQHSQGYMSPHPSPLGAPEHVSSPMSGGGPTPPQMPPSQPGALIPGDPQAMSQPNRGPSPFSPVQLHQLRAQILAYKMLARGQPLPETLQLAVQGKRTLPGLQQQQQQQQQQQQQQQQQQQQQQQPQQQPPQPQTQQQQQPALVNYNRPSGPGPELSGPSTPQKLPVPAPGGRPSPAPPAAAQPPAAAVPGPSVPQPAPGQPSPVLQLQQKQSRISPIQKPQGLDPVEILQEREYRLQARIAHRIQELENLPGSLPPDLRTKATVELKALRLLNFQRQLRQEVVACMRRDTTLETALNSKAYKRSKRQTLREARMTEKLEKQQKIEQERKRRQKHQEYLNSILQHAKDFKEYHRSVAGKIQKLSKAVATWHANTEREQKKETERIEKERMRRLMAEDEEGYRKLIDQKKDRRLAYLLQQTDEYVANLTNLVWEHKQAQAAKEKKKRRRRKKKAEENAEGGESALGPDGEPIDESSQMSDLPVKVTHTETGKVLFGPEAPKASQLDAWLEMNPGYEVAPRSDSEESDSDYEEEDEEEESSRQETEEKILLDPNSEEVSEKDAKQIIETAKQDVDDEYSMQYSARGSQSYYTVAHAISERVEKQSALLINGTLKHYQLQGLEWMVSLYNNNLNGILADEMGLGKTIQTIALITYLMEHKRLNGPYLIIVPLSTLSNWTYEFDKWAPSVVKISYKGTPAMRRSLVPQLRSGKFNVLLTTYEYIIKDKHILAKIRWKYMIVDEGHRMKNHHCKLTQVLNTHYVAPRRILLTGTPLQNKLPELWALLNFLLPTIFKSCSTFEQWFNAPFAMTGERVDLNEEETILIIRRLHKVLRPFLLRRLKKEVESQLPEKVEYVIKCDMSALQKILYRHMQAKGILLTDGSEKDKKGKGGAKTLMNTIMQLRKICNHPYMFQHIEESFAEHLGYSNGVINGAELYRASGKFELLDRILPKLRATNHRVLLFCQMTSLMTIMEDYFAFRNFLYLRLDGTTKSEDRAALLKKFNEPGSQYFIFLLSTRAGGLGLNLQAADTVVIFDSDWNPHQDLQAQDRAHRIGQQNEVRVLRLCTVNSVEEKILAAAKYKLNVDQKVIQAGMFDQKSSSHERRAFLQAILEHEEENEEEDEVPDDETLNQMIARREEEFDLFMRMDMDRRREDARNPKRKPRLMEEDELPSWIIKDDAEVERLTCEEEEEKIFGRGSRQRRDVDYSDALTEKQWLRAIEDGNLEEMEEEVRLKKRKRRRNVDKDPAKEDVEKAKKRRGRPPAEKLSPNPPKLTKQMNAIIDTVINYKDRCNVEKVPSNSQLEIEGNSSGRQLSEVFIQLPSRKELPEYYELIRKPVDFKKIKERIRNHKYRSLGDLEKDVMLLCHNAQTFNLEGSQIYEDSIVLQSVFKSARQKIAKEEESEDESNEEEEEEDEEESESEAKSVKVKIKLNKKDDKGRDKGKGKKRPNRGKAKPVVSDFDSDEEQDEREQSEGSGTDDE

Row | DC50 [1] | Dmax [2] | DC50 [2] | SMILES | BRM HiBit Degradation Maximum (%) [1]
1 | < 10 nM | ≥ 75% | < 10 nM | Cc1ncsc1-c1ccc([C@H](C)NC(=O)[C@@H]2C[C@@H](O)CN2C(=O)[C@@H](c2cc(C34CC(C(=O)N5CCC(c6sc7nnc(-c8ccccc8O)cc7c6C)CC5)(C3)C4)no2)C(C)C)cc1 [Compound 64, (2S,4R)-4-hydroxy-1-((R)-2-(3-(3-(4-(3-(2-hydroxyphenyl)-5-methylthieno[2,3-c]pyridazin-6-yl)piperidine-1-carbonyl)bicyclo[1.1.1]pentan-1-yl)isoxazol-5-yl)-3-methylbutanoyl)-N-((S)-1-(4-(4-methylthiazol-5-yl)phenyl)ethyl)pyrrolidine-2-carboxamide] | A (“A” indicates maximum degradation ≥ 75%)
2 | < 10 nM | ≥ 75% | ≥ 10 nM | Cc1ncsc1-c1ccc([C@H](C)NC(=O)[C@@H]2C[C@@H](O)CN2C(=O)[C@@H](c2cc(OCCN3CCN(c4sc5nnc(-c6ccccc6O)cc5c4C)CC3)no2)C(C)C)cc1 [Compound 66, (2S,4R)-4-hydroxy-1-((R)-2-(3-(2-(4-(3-(2-hydroxyphenyl)-5-methylthieno[2,3-c]pyridazin-6-yl)piperazin-1-yl)ethoxy)isoxazol-5-yl)-3-methylbutanoyl)-N-((S)-1-(4-(4-methylthiazol-5-yl)phenyl)ethyl)pyrrolidine-2-carboxamide] | A (“A” indicates maximum degradation ≥ 75%)
3 | ≥ 100 nM | < 50% | ≥ 1000 nM | Cc1ncsc1-c1ccc([C@H](C)NC(=O)[C@@H]2C[C@@H](O)CN2C(=O)[C@@H](c2cc(OCCN3CCC(c4sc5nnc(-c6ccccc6O)cc5c4F)CC3)no2)C(C)C)cc1 [Compound 68, (2S,4R)-1-((R)-2-(3-(2-(4-(5-fluoro-3-(2-hydroxyphenyl)thieno[2,3-c]pyridazin-6-yl)piperidin-1-yl)ethoxy)isoxazol-5-yl)-3-methylbutanoyl)-4-hydroxy-N-((S)-1-(4-(4-methylthiazol-5-yl)phenyl)ethyl)pyrrolidine-2-carboxamide] | B (“B” indicates maximum degradation ≥ 50%)
4 | ≥ 1000 nM | < 50% | ≥ 1000 nM | Cc1ncsc1-c1ccc([C@H](C)NC(=O)[C@@H]2C[C@@H](O)CN2C(=O)[C@@H](c2cc(OCCCN3CCc4sc5nnc(-c6ccccc6O)cc5c4C3)no2)C(C)C)cc1 [Compound 69, (2S,4R)-4-hydroxy-1-((R)-2-(3-(3-(3-(2-hydroxyphenyl)-7,8-dihydropyrido[3′,4′:4,5]thieno[2,3-c]pyridazin-6(5H)-yl)propoxy)isoxazol-5-yl)-3-methylbutanoyl)-N-((S)-1-(4-(4-methylthiazol-5-yl)phenyl)ethyl)pyrrolidine-2-carboxamide] | C (“C” indicates maximum degradation < 50%)
5 | ≥ 1000 nM | < 50% | ≥ 1000 nM | Cc1ncsc1-c1ccc([C@H](C)NC(=O)[C@@H]2C[C@@H](O)CN2C(=O)[C@@H](c2cc(N3CCC(N4CCc5sc6nnc(-c7ccccc7O)cc6c5C4)CC3)no2)C(C)C)cc1 [Compound 70, (2S,4R)-4-hydroxy-1-((R)-2-(3-(4-(3-(2-hydroxyphenyl)-7,8-dihydropyrido[3′,4′:4,5]thieno[2,3-c]pyridazin-6(5H)-yl)piperidin-1-yl)isoxazol-5-yl)-3-methylbutanoyl)-N-((S)-1-(4-(4-methylthiazol-5-yl)phenyl)ethyl)pyrrolidine-2-carboxamide] | C (“C” indicates maximum degradation < 50%)

Continued, compound first:

Row | SMILES | DC50 [1] | Dmax [2] | DC50 [2] | BRM HiBit Degradation Maximum (%) [1]
6 | Cc1ncsc1-c1ccc([C@H](C)NC(=O)[C@@H]2C[C@@H](O)CN2C(=O)[C@@H](c2cc(OCCN3C[C@H]4C[C@@H]3C[C@@H]4c3sc4nnc(-c5ccccc5O)cc4c3C)no2)C(C)C)cc1 [Compound 58, (2S,4R)-4-hydroxy-1-[(2R)-2-(3-{2-[(1R,4S,5S)-5-[3-(2-hydroxyphenyl)-5-methylthieno[2,3-c]pyridazin-6-yl]-2-azabicyclo[2.2.1]heptan-2-yl]ethoxy}-1,2-oxazol-5-yl)-3-methylbutanoyl]-N-[(1S)-1-[4-(4-methyl-1,3-thiazol-5-yl)phenyl]ethyl]pyrrolidine-2-carboxamide] | ≥ 10 nM | < 50% | ≥ 1000 nM | A (“A” indicates maximum degradation ≥ 75%)
7 | Cc1ncsc1-c1ccc([C@H](C)NC(=O)[C@@H]2C[C@@H](O)CN2C(=O)[C@@H](c2cc(O[C@H]3C[C@H](N4CCC(c5sc6nnc(-c7ccccc7O)cc6c5C)CC4)C3)no2)C(C)C)cc1 [Compound 59, (2S,4R)-4-hydroxy-1-((R)-2-(3-((1r,3R)-3-(4-(3-(2-hydroxyphenyl)-5-methylthieno[2,3-c]pyridazin-6-yl)piperidin-1-yl)cyclobutoxy)isoxazol-5-yl)-3-methylbutanoyl)-N-((S)-1-(4-(4-methylthiazol-5-yl)phenyl)ethyl)pyrrolidine-2-carboxamide] | ≥ 1000 nM | < 50% | ≥ 1000 nM | A (“A” indicates maximum degradation ≥ 75%)
8 | Cc1ncsc1-c1ccc([C@H](C)NC(=O)[C@@H]2C[C@@H](O)CN2C(=O)[C@@H](c2cc(OCCN3C[C@H]4C[C@@H]3C[C@H]4c3sc4nnc(-c5ccccc5O)cc4c3C)no2)C(C)C)cc1 [Compound 60, (2S,4R)-4-hydroxy-1-((R)-2-(3-(2-((1R,4S,5R)-5-(3-(2-hydroxyphenyl)-5-methylthieno[2,3-c]pyridazin-6-yl)-2-azabicyclo[2.2.1]heptan-2-yl)ethoxy)isoxazol-5-yl)-3-methylbutanoyl)-N-((S)-1-(4-(4-methylthiazol-5-yl)phenyl)ethyl)pyrrolidine-2-carboxamide] | ≥ 10 nM | ≥ 50% | ≥ 100 nM | A (“A” indicates maximum degradation ≥ 75%)
9 | Cc1ncsc1-c1ccc([C@H](C)NC(=O)[C@@H]2C[C@@H](O)CN2C(=O)[C@@H](c2cc(O[C@H]3C[C@@H](N4CCC(c5sc6nnc(-c7ccccc7O)cc6c5C)CC4)C3)no2)C(C)C)cc1 [Compound 61, (2S,4R)-4-hydroxy-1-((R)-2-(3-((1s,3S)-3-(4-(3-(2-hydroxyphenyl)-5-methylthieno[2,3-c]pyridazin-6-yl)piperidin-1-yl)cyclobutoxy)isoxazol-5-yl)-3-methylbutanoyl)-N-((S)-1-(4-(4-methylthiazol-5-yl)phenyl)ethyl)pyrrolidine-2-carboxamide] | ≥ 1000 nM | < 50% | ≥ 1000 nM | C (“C” indicates maximum degradation < 50%)
10 | Cc1ncsc1-c1ccc([C@H](C)NC(=O)[C@@H]2C[C@@H](O)CN2C(=O)[C@@H](c2cc(OCCN3C[C@H]4C[C@@H](C3)[C@H]4c3sc4nnc(-c5ccccc5O)cc4c3C)no2)C(C)C)cc1 [Compound 62, (2S,4R)-4-hydroxy-1-((R)-2-(3-(2-((1R,5S,6S)-6-(3-(2-hydroxyphenyl)-5-methylthieno[2,3-c]pyridazin-6-yl)-3-azabicyclo[3.1.1]heptan-3-yl)ethoxy)isoxazol-5-yl)-3-methylbutanoyl)-N-((S)-1-(4-(4-methylthiazol-5-yl)phenyl)ethyl)pyrrolidine-2-carboxamide] | ≥ 1000 nM | < 50% | ≥ 1000 nM | C (“C” indicates maximum degradation < 50%)
11 | Cc1ncsc1-c1ccc([C@H](C)NC(=O)[C@@H]2C[C@@H](O)CN2C(=O)[C@@H](c2cc(OCCN3C[C@H]4C[C@@H](C3)[C@@H]4c3sc4nnc(-c5ccccc5O)cc4c3C)no2)C(C)C)cc1 [Compound 63, (2S,4R)-4-hydroxy-1-((R)-2-(3-(2-((1R,5S,6R)-6-(3-(2-hydroxyphenyl)-5-methylthieno[2,3-c]pyridazin-6-yl)-3-azabicyclo[3.1.1]heptan-3-yl)ethoxy)isoxazol-5-yl)-3-methylbutanoyl)-N-((S)-1-(4-(4-methylthiazol-5-yl)phenyl)ethyl)pyrrolidine-2-carboxamide] | ≥ 10 nM | < 50% | ≥ 1000 nM | A (“A” indicates maximum degradation ≥ 75%)
12 | Cc1ncsc1-c1ccc([C@H](C)NC(=O)[C@@H]2C[C@@H](O)CN2C(=O)[C@@H](NC(=O)c2cnc(N3CCC(c4sc5nnc(-c6ccccc6O)cc5c4C)CC3)nc2)C(C)(C)C)cc1 [Compound 65, N-((S)-1-((2S,4R)-4-hydroxy-2-(((S)-1-(4-(4-methylthiazol-5-yl)phenyl)ethyl)carbamoyl)pyrrolidin-1-yl)-3,3-dimethyl-1-oxobutan-2-yl)-2-(4-(3-(2-hydroxyphenyl)-5-methylthieno[2,3-c]pyridazin-6-yl)piperidin-1-yl)pyrimidine-5-carboxamide] | ≥ 10 nM | < 50% | ≥ 1000 nM | A (“A” indicates maximum degradation ≥ 75%)
13 | Cc1ncsc1-c1ccc([C@H](C)NC(=O)[C@@H]2C[C@@H](O)CN2C(=O)[C@@H](c2cc(OCCN3CC4CC3CC4c3cc4cc(-c5ccccc5O)nnc4s3)no2)C(C)C)cc1 (stereo partly drawn) [Compound 67, (2S,4R)-4-hydroxy-1-((2R)-2-(3-(2-(5-(3-(2-hydroxyphenyl)thieno[2,3-c]pyridazin-6-yl)-2-azabicyclo[2.2.1]heptan-2-yl)ethoxy)isoxazol-5-yl)-3-methylbutanoyl)-N-((S)-1-(4-(4-methylthiazol-5-yl)phenyl)ethyl)pyrrolidine-2-carboxamide] | ≥ 100 nM | < 50% | ≥ 1000 nM | A (“A” indicates maximum degradation ≥ 75%)
